# Measured values from ChEMBL document CHEMBL1153168, “3D QSAR studies on 3,4-dihydroquinazolines as T-type calcium channel blocker by comparative molecular similarity indices analysis (CoMSIA)” (Bioorg Med Chem Lett, 2010).
# Molecular target: Voltage-dependent T-type calcium channel subunit alpha-1G (Homo sapiens, UniProt O43497)
# Test: Inhibition of human T-type calcium channel alpha1G in HEK293 cells
# Assay type: cell-based
# Chain of Voltage-dependent T-type calcium channel subunit alpha-1G (O43497 whole entry): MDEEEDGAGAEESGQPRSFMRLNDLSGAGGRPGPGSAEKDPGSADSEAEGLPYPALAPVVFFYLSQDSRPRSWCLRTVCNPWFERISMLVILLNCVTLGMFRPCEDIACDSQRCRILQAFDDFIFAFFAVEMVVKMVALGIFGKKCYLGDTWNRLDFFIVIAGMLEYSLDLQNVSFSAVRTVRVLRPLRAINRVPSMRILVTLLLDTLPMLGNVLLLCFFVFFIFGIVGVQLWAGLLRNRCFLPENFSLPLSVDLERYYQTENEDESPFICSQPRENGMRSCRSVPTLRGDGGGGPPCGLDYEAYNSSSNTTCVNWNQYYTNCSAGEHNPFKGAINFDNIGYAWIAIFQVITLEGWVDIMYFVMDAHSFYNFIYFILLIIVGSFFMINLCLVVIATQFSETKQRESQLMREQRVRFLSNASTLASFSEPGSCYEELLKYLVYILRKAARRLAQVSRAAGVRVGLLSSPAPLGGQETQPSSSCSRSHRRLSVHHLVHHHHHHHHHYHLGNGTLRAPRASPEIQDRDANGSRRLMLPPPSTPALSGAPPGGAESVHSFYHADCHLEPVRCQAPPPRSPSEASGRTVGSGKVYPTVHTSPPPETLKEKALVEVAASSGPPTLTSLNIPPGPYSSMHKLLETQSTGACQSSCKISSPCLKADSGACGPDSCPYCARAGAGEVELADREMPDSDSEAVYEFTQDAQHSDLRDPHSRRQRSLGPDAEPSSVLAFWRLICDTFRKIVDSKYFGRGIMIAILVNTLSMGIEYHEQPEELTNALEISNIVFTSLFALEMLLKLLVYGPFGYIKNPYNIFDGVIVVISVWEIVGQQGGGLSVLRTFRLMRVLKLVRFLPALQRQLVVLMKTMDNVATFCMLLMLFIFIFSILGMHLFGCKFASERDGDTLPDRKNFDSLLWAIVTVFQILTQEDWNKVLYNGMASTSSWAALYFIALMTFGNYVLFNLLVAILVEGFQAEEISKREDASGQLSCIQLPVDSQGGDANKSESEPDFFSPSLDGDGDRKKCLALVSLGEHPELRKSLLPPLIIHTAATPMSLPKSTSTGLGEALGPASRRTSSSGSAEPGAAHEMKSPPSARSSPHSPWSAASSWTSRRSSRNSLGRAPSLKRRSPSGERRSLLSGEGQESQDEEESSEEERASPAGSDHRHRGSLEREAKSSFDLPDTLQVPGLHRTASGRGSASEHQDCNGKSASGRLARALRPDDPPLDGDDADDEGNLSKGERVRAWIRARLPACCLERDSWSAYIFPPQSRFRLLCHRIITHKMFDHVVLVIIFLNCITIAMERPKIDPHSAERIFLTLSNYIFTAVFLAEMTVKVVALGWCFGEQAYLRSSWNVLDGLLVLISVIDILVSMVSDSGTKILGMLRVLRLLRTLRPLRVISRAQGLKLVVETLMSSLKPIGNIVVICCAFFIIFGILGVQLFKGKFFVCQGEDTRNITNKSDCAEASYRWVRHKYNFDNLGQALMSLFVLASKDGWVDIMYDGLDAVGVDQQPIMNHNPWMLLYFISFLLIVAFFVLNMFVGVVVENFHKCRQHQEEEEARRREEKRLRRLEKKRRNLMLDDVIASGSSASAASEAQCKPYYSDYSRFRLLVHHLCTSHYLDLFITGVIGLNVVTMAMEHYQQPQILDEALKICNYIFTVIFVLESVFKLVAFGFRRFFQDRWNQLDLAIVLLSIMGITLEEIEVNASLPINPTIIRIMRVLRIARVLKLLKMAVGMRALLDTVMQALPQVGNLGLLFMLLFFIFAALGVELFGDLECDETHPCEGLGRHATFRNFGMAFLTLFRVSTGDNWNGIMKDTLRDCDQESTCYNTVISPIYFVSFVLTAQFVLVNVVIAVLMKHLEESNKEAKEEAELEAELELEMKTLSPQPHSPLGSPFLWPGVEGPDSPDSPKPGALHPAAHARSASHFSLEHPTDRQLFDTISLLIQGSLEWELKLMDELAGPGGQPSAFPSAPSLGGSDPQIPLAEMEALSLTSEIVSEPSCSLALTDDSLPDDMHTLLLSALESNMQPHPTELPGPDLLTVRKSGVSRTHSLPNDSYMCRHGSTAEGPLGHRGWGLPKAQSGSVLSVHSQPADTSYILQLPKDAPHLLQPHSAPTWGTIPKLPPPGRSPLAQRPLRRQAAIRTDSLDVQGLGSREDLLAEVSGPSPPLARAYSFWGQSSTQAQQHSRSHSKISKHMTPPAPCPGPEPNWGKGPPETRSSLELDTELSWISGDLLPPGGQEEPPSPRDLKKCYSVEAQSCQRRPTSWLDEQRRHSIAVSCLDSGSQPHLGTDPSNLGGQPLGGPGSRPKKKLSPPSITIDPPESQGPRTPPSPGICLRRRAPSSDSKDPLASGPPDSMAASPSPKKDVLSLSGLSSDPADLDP
row,SMILES,IC50
1,O=C(CC1c2ccccc2N=C(N2CCCCC2)N1c1ccccc1)NCc1ccc([N+](=O)[O-])cc1 (stereo not drawn),2.34 µM
2,COC(=O)CC1c2ccccc2N=C(NCCCCCNC(=O)OC(C)(C)C)N1c1ccccc1 (stereo not drawn),2.02 µM
3,COC(=O)CC1c2ccccc2N=C(Nc2ccccc2)N1CCCCCNC(=O)OC(C)(C)C (stereo not drawn),2.27 µM
4,CN(C)C1=Nc2ccccc2C(CC(=O)NCc2ccc(NS(=O)(=O)c3ccc(F)cc3)cc2)N1c1ccccc1 (stereo not drawn),0.43 µM
5,NCCCCCNC1=Nc2ccccc2C(CC(=O)NCc2ccccc2)N1c1ccccc1 (stereo not drawn),3.13 µM
6,NCCCCCN1C(Nc2ccccc2)=Nc2ccccc2C1CC(=O)NCc1ccccc1 (stereo not drawn),4.54 µM
7,CCN1C(N2CCCCC2)=Nc2ccccc2C1CC(=O)NCc1ccccc1 (stereo not drawn),4.58 µM
8,Nc1ccc(CNC(=O)CC2c3ccccc3N=C(N3CCCCC3)N2c2ccccc2)cc1 (stereo not drawn),13 µM
9,CCN1C(N(C)C)=Nc2ccccc2C1CC(=O)NCc1ccc([N+](=O)[O-])cc1 (stereo not drawn),2.17 µM
10,CCN1C(N(C)C)=Nc2cc(N)ccc2C1CC(=O)NCc1ccc(N)cc1 (stereo not drawn),12.7 µM
11,CCN1C(N(C)C)=Nc2ccccc2C1CC(=O)NCc1ccc(NS(=O)(=O)c2ccc(C)cc2)cc1 (stereo not drawn),1.12 µM
12,CCN1C(N2CCCCC2)=Nc2ccccc2C1CC(=O)NCc1ccc([N+](=O)[O-])cc1 (stereo not drawn),0.869 µM
13,COC(=O)CC1c2ccccc2N=C(NCCCCCN)N1c1ccccc1 (stereo not drawn),1.84 µM
14,CC(C)(C)OC(=O)NCCCCCN1C(Nc2ccccc2)=Nc2ccccc2C1CC(=O)NCc1ccccc1 (stereo not drawn),1.2 µM
15,COC(=O)CC1c2ccccc2N=C(Nc2ccccc2)N1CCCCCN (stereo not drawn),9.16 µM
16,CCN1C(N(C)C)=Nc2ccccc2C1CC(=O)NCc1ccc(NS(=O)(=O)c2ccc(F)cc2)cc1 (stereo not drawn),4.1 µM
17,O=C(CC1c2ccccc2N=C(N2CCCCC2)N1c1ccccc1)NS(=O)(=O)c1cccs1 (stereo not drawn),1.01 µM
18,CCN1C(N(C)C)=Nc2ccccc2C1CC(=O)NCc1ccccc1 (stereo not drawn),24.2 µM
